Source: US3988450A, “Cephalosporins” (priority 1974, dated 1976)
≈ marks a conversion by molar mass, not a printed value. Like-named read-outs stand apart in the source and are kept apart here.

Columns and labels:
[1] = Serum concentrations in mice after sub-cutaneous injection, microbiological assay; type: in vivo; conditions: mouse, sc, 50 mg/kg sub-cutaneous, average, read-out: Serum concentrations at time after dosing; for concentration at 0.5 h: 30 min; for concentration at 1 h: 60 min
Procedure: Each compound was injected sub-cutaneously into groups of mice at a dose of 50 mg/kg, and serum samples were taken at timed intervals thereafter and assayed microbiologically for their antibiotic content using the appropriate compound as standard.

[2] = general knowledge; cited from earlier work
P. mirabilis 889 = assay: MIC on nutrient agar; type: cell-based; conditions: Proteus mirabilis; P. mirabilis 889, nutrient agar
Source text: (§1) The minimum inhibitory concentrations of this compound required to inhibit the growth of various bacteria on nutrient agar are tabulated below: […]

E. coli JT1 = assay: MIC on nutrient agar; type: cell-based; conditions: Escherichia coli
Source text: as §1

Proteus mirabilis C977 = assay: MIC on nutrient agar; type: cell-based
Source text: as §1

β-Haemolytic Strep. CN10 = assay: MIC on nutrient agar; type: cell-based
Source text: as §1

B. subtilis = assay: MIC on nutrient agar; type: cell-based; conditions: Bacillus subtilis
Source text: as §1

Staph. aureus Oxford = assay: MIC on nutrient agar; type: cell-based; conditions: Staphylococcus aureus
Source text: as §1

Klebsiella aerogenes A = assay: MIC on nutrient agar; type: cell-based
Source text: as §1

Enterobacter cloacae N1 = assay: MIC on nutrient agar; type: cell-based
Source text: as §1

Shigella sonnei = assay: MIC on nutrient agar; type: cell-based
Source text: as §1

Serratia marcescens US32 = assay: MIC on nutrient agar; type: cell-based
Source text: as §1

Salmonella typhi = assay: MIC on nutrient agar; type: cell-based; conditions: Salmonella enterica
Source text: as §1

Staph. aureus Russell = assay: MIC on nutrient agar; type: cell-based; conditions: Staphylococcus aureus
P. morganii = assay: MIC on nutrient agar; type: cell-based; conditions: Morganella morganii
Source text: as §1

P. mirabilis 899 = assay: MIC on nutrient agar; type: cell-based; conditions: Proteus mirabilis; P. mirabilis 899, nutrient agar
[3] = E. coli JT1, nutrient agar, read-out: MIC

| SMILES | MIC (E. coli JT1; [3]) [µg/mL] | MIC (Proteus mirabilis C977) [µg/mL] | MIC (β-Haemolytic Strep. CN10) [µg/mL] | MIC (B. subtilis) [µg/mL] | MIC (Staph. aureus Oxford) [µg/mL] | MIC (Klebsiella aerogenes A) [µg/mL] | MIC (Shigella sonnei) [µg/mL] | MIC (Salmonella typhi) [µg/mL] | MIC (Staph. aureus Russell) [µg/mL] | also measured |
| --- | --- | --- | --- | --- | --- | --- | --- | --- | --- | --- |
| Cc1nnc(SCC2=C(C(=O)O)N3C(=O)[C@@H](NC(=O)Cn4cnnn4)[C@H]3SC2)s1 [Cefazolin, reference compound] |  |  |  |  |  |  |  |  |  | concentration at 10 min [1]: 45000 ng/mL; concentration at 20 min [1]: 37000 ng/mL; concentration at 0.5 h [1]: 21000 ng/mL; concentration at 1 h [1]: < 4000 ng/mL; concentration at 2 h [1]: < 4000 ng/mL; concentration at 4 h [1]: < 4000 ng/mL; duration of action (regarded as) [2]: relatively `long-acting` cephalosporin |
| N[C@@H](C(=O)N[C@@H]1C(=O)N2C(C(=O)O)=C(Cc3ccccc3C(=O)O)CS[C@H]12)c1ccccc1 [LV, 3-(o-Carboxybenzyl)-7β-(D-α-phenylglycyl)aminoceph-3-em-4-carboxylic acid] | 12.5 (≈ 26.7 µM) | 5 (≈ 10.7 µM) | 5 (≈ 10.7 µM) | 1.25 (≈ 2.67 µM) | 5 (≈ 10.7 µM) | 5 (≈ 10.7 µM) |  |  |  | MIC (P. mirabilis 889): 5 µg/mL (≈ 10.7 µM) |
| CN(N=Cc1ccccc1)C(=O)N[C@@H](C(=O)N[C@@H]1C(=O)N2C(C(=O)O)=C(Cc3ccccc3C(=O)O)CS[C@H]12)c1ccccc1 [LVIII, 3-(o-Carboxybenzyl)-7β-[D-α-(3-benzylideneimino-3-methylureido)-phenylacetamido]-ceph-3-em-4-carboxylic acid] | 8 (≈ 12.7 µM) |  | 0.2 (≈ 0.319 µM) |  | 8 (≈ 12.7 µM) |  | 4 (≈ 6.37 µM) |  |  | MIC (Enterobacter cloacae N1): 8 µg/mL (≈ 12.7 µM) |
| CN(C(=O)C=Cc1ccccc1)C(=O)N[C@@H](C(=O)N[C@@H]1C(=O)N2C(C(=O)O)=C(Cc3ccccc3C(=O)O)CS[C@H]12)c1ccccc1 [LVIX, 3-(o-Carboxybenzyl)-7β-[D-α-(3-cinnamoul-3-methylureido)phenylacetamido]ceph-3-em-4-carboxylic acid] |  |  | 0.25 (≈ 0.382 µM) |  | 4 (≈ 6.11 µM) |  | 4 (≈ 6.11 µM) |  |  | MIC (Serratia marcescens US32): 4 µg/mL (≈ 6.11 µM) |
| N[C@@H](C(=O)N[C@@H]1C(=O)N2C(C(=O)O)=C(Cc3ccc(C(=O)O)cc3)CS[C@H]12)c1ccccc1.O=C(O)C(F)(F)F [XIII, 3-(p-Carboxybenzyl)-7β-(D-α-phenylglycyl)amino-ceph-3-em-4-carboxylic acid trifluoroacetic acid salt] | 12.5 | 1.25 | 0.5 | 1.25 | 0.5 |  | 5 | 0.5 | 2.5 |  |
| CN(N=Cc1ccccc1)C(=O)N[C@@H](C(=O)N[C@@H]1C(=O)N2C(C(=O)O)=C(Cc3ccc(C(=O)O)cc3)CS[C@H]12)c1ccccc1 [XIX, 3-(p-Carboxybenzyl)-7β-[D-α-(3-benzylideneimino-3-methylureido)phenylacetamido]ceph-3-em-4-carboxylic acid] | 12.5 (≈ 19.9 µM) | 5 (≈ 7.97 µM) | 0.12 (≈ 0.191 µM) |  | 1.25 (≈ 1.99 µM) | 5 (≈ 7.97 µM) | 2.5 (≈ 3.98 µM) | 5 (≈ 7.97 µM) |  | MIC (Enterobacter cloacae N1): 5 µg/mL (≈ 7.97 µM); MIC (Serratia marcescens US32): 12.5 µg/mL (≈ 19.9 µM); MIC (P. morganii): 12.5 µg/mL (≈ 19.9 µM) |
| N[C@@H](C(=O)N[C@@H]1C(=O)N2C(C(=O)O)=C(Cc3cccc(C(=O)O)c3)CS[C@H]12)c1ccccc1 [XLI, 3-(m-Carboxybenzyl)-7β-(D-α-phenylglycyl)amino-ceph-3-em-4-carboxylic acid] | 12.5 (≈ 26.7 µM) | 2.5 (≈ 5.35 µM) | 0.12 (≈ 0.257 µM) | 0.25 (≈ 0.535 µM) | 0.25 (≈ 0.535 µM) | 2.5 (≈ 5.35 µM) |  | 2.5 (≈ 5.35 µM) | 1.25 (≈ 2.67 µM) |  |
| O=C(O)C1=C(Cc2cccc(C(=O)O)c2)CS[C@@H]2[C@H](NC(=O)[C@H](O)c3ccccc3)C(=O)N12 [XLIII] |  | 8 (≈ 17.1 µM) | 2 (≈ 4.27 µM) | 0.5 (≈ 1.07 µM) | 0.5 (≈ 1.07 µM) |  |  | 8 (≈ 17.1 µM) |  |  |
| N[C@@H](C(=O)N[C@@H]1C(=O)N2C(C(=O)O)=C(Cc3ccc(C(=O)O)cc3)CS[C@H]12)c1ccc(O)cc1.O=C(O)C(F)(F)F [XVII, 3-(p-carboxybenzyl)-7β-(D-α-p-hydroxyphenylglycyl)aminoceph-3-em-4-carboxylic acid trifluoroacetic acid salt] |  | 2.5 | 0.5 | 5 | 2.5 |  |  | 5 | 5 |  |
| O=C(O)C1=C(Cc2ccc(C(=O)O)cc2)CS[C@@H]2[C@H](NC(=O)[C@H](O)c3ccccc3)C(=O)N12 [XV] | 5 (≈ 10.7 µM) | 0.5 (≈ 1.07 µM) | 0.25 (≈ 0.534 µM) | 0.5 (≈ 1.07 µM) | 0.25 (≈ 0.534 µM) |  |  | 5 (≈ 10.7 µM) |  |  |
| CN(C(=O)C=Cc1ccccc1)C(=O)N[C@@H](C(=O)N[C@@H]1C(=O)N2C(C(=O)O)=C(Cc3ccc(C(=O)O)cc3)CS[C@H]12)c1ccccc1 [XXI, 3-(p-Carboxybenzyl)-7β-[D-α-(3-cinnamoyl-3-methylureido)phenylacetamido]ceph-3-em-4-carboxylic acid] |  | 5 (≈ 7.64 µM) | 0.12 (≈ 0.183 µM) |  | 2.5 (≈ 3.82 µM) | 5 (≈ 7.64 µM) | 5 (≈ 7.64 µM) | 12.5 (≈ 19.1 µM) |  | MIC (E. coli JT1; JT1): 12.5 µg/mL (≈ 19.1 µM); MIC (Enterobacter cloacae N1): 5 µg/mL (≈ 7.64 µM); MIC (Serratia marcescens US32): 5 µg/mL (≈ 7.64 µM) |
| NC(=O)N[C@H](Cc1c[nH]c2ccccc12)C(=O)N[C@@H](C(=O)N[C@@H]1C(=O)N2C(C(=O)O)=C(Cc3ccc(C(=O)O)cc3)CS[C@H]12)c1ccccc1 [XXVI] | 5 (≈ 7.18 µM) | 12.5 (≈ 17.9 µM) |  |  | 0.5 (≈ 0.718 µM) | 5 (≈ 7.18 µM) | 5 (≈ 7.18 µM) | 5 (≈ 7.18 µM) | 5 (≈ 7.18 µM) |  |
| O=C(Cc1cccs1)N[C@@H]1C(=O)N2C(C(=O)O)=C(Cc3ccc(C(=O)O)cc3)CS[C@H]12 [XXX, 7β-(2-Thienylacetamido)-3-(p-carboxybenzyl)ceph-3-em-4-carboxylic acid] |  | 5 (≈ 10.9 µM) | 0.5 (≈ 1.09 µM) | 1.2 (≈ 2.62 µM) | 0.1 (≈ 0.218 µM) |  |  | 5 (≈ 10.9 µM) | 5 (≈ 10.9 µM) | MIC (P. mirabilis 899): 2.5 µg/mL (≈ 5.45 µM) |
| N[C@@H](C(=O)N[C@@H]1C(=O)N2C(C(=O)O)=C(Cc3cccc(C(=O)O)c3)CS[C@H]12)c1ccccc1 [m-carboxy isomer, 3-(m-Carboxybenzyl)-7β-(D-α-phenylglycyl)amino-ceph-3-em-4-carboxylic acid] |  |  |  |  |  |  |  |  |  | concentration at 10 min [1]: 84000 ng/mL; concentration at 20 min [1]: 64000 ng/mL; concentration at 0.5 h [1]: 50000 ng/mL; concentration at 1 h [1]: 26000 ng/mL; concentration at 2 h [1]: 14000 ng/mL; concentration at 4 h [1]: 1600 ng/mL |
| N[C@@H](C(=O)N[C@@H]1C(=O)N2C(C(=O)O)=C(Cc3ccccc3C(=O)O)CS[C@H]12)c1ccccc1 [o-carboxy isomer, 3-(o-Carboxybenzyl)-7β-(D-α-phenylglycyl)aminoceph-3-em-4-carboxylic acid] |  |  |  |  |  |  |  |  |  | concentration at 10 min [1]: 63000 ng/mL; concentration at 20 min [1]: 66000 ng/mL; concentration at 0.5 h [1]: 58000 ng/mL; concentration at 1 h [1]: 49000 ng/mL; concentration at 2 h [1]: 41000 ng/mL; concentration at 4 h [1]: 31000 ng/mL |
| N[C@@H](C(=O)N[C@@H]1C(=O)N2C(C(=O)O)=C(Cc3ccc(C(=O)O)cc3)CS[C@H]12)c1ccccc1 [p-carboxy isomer, 3-(p-Carboxybenzyl)-7β-(D-α-phenylglycyl)amino-ceph-3-em-4-carboxylic acid] |  |  |  |  |  |  |  |  |  | concentration at 10 min [1]: 75000 ng/mL; concentration at 20 min [1]: 87000 ng/mL; concentration at 0.5 h [1]: 69000 ng/mL; concentration at 1 h [1]: 48000 ng/mL; concentration at 2 h [1]: 22000 ng/mL; concentration at 4 h [1]: 9300 ng/mL |
